This is an account of results in patent US10370372B2, “Fused pyrimidine compound or salt thereof” (TAIHO PHARMACEUTICAL CO., LTD., priority 2015, dated 2019).

SMILES strings stand for the structures. pIC50: −log10 of the molar value. Where two headings read alike, the source gives them in different places. Some results are limits rather than exact numbers.

What all share (assay type): cell-based
Assay [1] has as its system AR positive human prostate cancer cells VCaP. Nature of the assay: Agonist activity for AR: cell proliferation rate of VCaP cells. Particulars: 5-10000 nmol/L, 72 hours, relative to evaluation medium only, more than 10% = agonist activity. The protocol:
Then, the number of viable cells was measured (test group). As a control, the cells were cultured after being added with the evaluation medium only, and the number of viable cells was measured (control group). The number of viable cells was measured by using CellTiter-Glo™ Luminescent Cell Viability Assay (Promega). From the measured number of viable cells, cell proliferation rate with respect to the compound of Examples or the compound of Comparative Examples was calculated based on the number of viable cells measured in the case of using the evaluation medium only. Cell proliferation rate (%)=(Number of viable cells in test group−Number of viable cells in control group)/(Number of viable cells in control group)×100
By considering an error in the number of viable cells measured in the case of using the evaluation medium only, when the cell proliferation rate was more than 10% at any concentration of the 8 concentrations which had been evaluated, it was determined to have an agonist activity for AR.

Assay [2] has as its system Human prostate cancer cells LNCaP. Nature of the assay: Inhibitory activity on androgen-dependent proliferation of prostate cancer cells. To be noted: 1 nmol/L DHT, 72 hours, Cell Counting Kit-8, read-out: Proliferation inhibition concentration GI50 value. The protocol:
Human prostate cancer cells LNCaP (Non-Patent Literature 5) having […] androgen receptor gene were seeded in a clear bottom 96 well microplate (BD) at 4.0×10^3/well with phenol red free RPMI1640 containing 5% DCC-FBS (hereinbelow, the medium is referred to as an evaluation medium), and then cultured overnight. […] Then, the number of viable cells was measured. The number of viable cells was measured by using Cell Counting Kit-8 (DOJINDO LABORATORIES).
(In general: Formazan colour is commonly taken as a measure of viable cells.)

The next assay concerns AR expression in LNCaP. In words: Activity of reducing expression level of androgen receptor (Western blotting in LNCaP). Particulars: Homo sapiens, 48 h, read-out: AR expression reducing activity. The protocol: AR positive human prostate cancer cells LNCaP were seeded in a 6 well microplate (BD) at 3.5×10^5/well with RPMI1640 containing 5% FBS (hereinbelow, the medium is referred to as an evaluation medium), and then cultured overnight. […] After culture for 48 hours, the medium was removed and the cells were washed with PBS and added with 0.1 mL of Lysis buffer (M-PER added with Protease Inhibitor Cocktail), followed by keeping at 4° C. for 20 minutes. After cell lysis, the cell solution was centrifuged to recover the supernatant as cell lysate. […] The antibody-reacting band (anti AR receptor) was quantified by LAS Imaging System (FUJIFILM) using Super Signal West Dura Substrate (Thermo Scientific) as a detection reagent.
When the AR expression reducing activity is 50% or more, it is described as “reduced”.
A general note: A western blot detects proteins with antibodies after separation by electrophoresis.

The target in the next assay is T1, human androgen receptor (Homo sapiens, UniProt P10275).
T1 construct: expressed in transfected cells; host or cells: COS-7 cells (ATCC)
T1 sequence (P10275 1-920): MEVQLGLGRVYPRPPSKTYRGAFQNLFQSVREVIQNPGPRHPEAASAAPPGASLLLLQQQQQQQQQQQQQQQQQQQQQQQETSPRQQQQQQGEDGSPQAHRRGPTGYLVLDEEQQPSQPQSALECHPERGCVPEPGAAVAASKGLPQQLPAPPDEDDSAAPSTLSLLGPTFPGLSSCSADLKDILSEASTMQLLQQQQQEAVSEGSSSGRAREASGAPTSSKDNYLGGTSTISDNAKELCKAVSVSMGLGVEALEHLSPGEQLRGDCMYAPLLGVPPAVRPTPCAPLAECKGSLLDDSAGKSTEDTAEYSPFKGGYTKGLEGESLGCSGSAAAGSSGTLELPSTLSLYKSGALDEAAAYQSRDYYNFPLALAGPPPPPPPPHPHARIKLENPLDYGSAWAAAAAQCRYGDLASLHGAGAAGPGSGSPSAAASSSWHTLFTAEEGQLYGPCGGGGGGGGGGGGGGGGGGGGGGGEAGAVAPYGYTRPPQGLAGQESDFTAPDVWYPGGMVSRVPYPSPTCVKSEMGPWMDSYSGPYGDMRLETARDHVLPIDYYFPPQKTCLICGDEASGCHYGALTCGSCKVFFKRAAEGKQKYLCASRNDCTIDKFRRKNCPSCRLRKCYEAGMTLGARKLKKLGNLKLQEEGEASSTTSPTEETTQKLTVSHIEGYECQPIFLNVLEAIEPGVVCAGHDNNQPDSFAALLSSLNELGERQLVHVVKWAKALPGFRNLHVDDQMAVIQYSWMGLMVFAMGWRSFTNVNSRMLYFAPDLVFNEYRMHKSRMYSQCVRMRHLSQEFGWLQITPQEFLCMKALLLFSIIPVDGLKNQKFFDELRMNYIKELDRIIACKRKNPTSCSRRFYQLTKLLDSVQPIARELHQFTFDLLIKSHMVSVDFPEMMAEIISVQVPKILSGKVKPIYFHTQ
In words: Antagonist activity for AR: MMTV-luc reporter transcription in COS-7 cells transfected with human AR, stimulated with DHT. The protocol: Antagonist activity for AR was evaluated according to the following method. COS-7 cells (ATCC) were transfected with pMMTV-luc vector (reporter plasmid having, as an androgen response element, […] long terminal repeat) and pEX-hAR vector (human androgen receptor expression vector: which expresses human AR gene under control of CMV promoter) by using Nucleofector (registered trademark) Kit R (Lonza) as a transfection reagent and Amaxa (Lonza). The COS-7 cells obtained after transfection were seeded in a clear bottom 96 well microplate (BD) at 1.5×10^4/well with phenol red free RPMI1640 containing 10% charcoal-treated fetal bovine serum (hereinbelow, DCC-FBS) (hereinbelow, the medium is referred to as an evaluation medium), and then cultured overnight. […] Then, the transcription activity value of the reporter plasmid was measured. The transcription activity was measured by using Bright-Glo™ Luciferase Assay System (Promega).

Where [3] appears, read: COS-7 cells with pMMTV-luc and pEX-hAR, 1 nmol/L DHT, 24 hours, read-out: AR antagonist IC50.

The pIC50 is the negative decadic logarithm of the IC50, by convention in mol/L.

As for `CC(C)(C)OC(=O)N1Cc2ccc(Nc3ncnc4c3CCN(c3ccc(C#N)c(Cl)c3)C4)cc2C1` [Example 29, tert-butyl 5-((7-(3-chloro-4-cyanophenyl)-5,6,7,8-tetrahydropyrido[3,4-d]pyrimidin-4-yl)amino)isoindoline-2-carboxylate], the “Cell proliferation rate (%)” value in assay [1] turned out to be 2.4%. In addition, the GI50 in assay [2] stood at 830 nM. In the assay on AR expression in LNCaP, the inhibition at 10 µM was > 50%. This compound also had a negative-log IC50 (pIC50) against human androgen receptor of 6.66.

Regarding `CC(C)(C)OC(=O)N1CCc2ccc(Nc3ncnc4c3CCN(c3ccc(C#N)c(Cl)c3)C4)cc2C1` [Example 36, tert-Butyl 7-((7-(3-chloro-4-cyanophenyl)-5,6,7,8-tetrahydropyrido[3,4-d]pyrimidin-4-yl)amino)-3,4-dihydroisoquinoline-2(1H)-carboxylate], in assay [1], the “Cell proliferation rate (%)” value is recorded as 4.9%. Further, the GI50 in assay [2] amounted to 150 nM. Further, the inhibition at 10 µM with AR expression in LNCaP was > 50%. Also, the pIC50 on human androgen receptor (setting [3]) was 6.74.

For the compound `N#Cc1ccc(N2CCc3c(ncnc3Nc3ccc4c(c3)CNCC4)C2)cc1Cl` [Example 37, 2-Chloro-4-(4-((1,2,3,4-tetrahydroisoquinolin-7-yl)amino)-5,6-dihydropyrido[3,4-d]pyrimidin-7(8H)-yl)benzonitrile], the “Cell proliferation rate (%)” value in assay [1] came to 4.6%. Also, the GI50 in assay [2] was 990 nM. The inhibition at 10 µM in the assay with AR expression in LNCaP is > 50%. Further, the pIC50 at human androgen receptor is 6.16.

Turning to `CC(=O)N1CCN(CCCOc2ccc(Nc3ncnc4c3CCN(c3ccc(C#N)c(Cl)c3)C4)cc2Cl)CC1` [Example 42, 4-(4-((4-(3-(4-Acetylpiperazin-1-yl)propoxy)-3-chlorophenyl)amino)-5,6-dihydropyrido[3,4-d]pyrimidin-7(8H)-yl)-2-chlorobenzonitrile], the “Cell proliferation rate (%)” value in assay [1] was 5.1%. For the same compound, the GI50 in assay [2] is 1300 nM. Besides, the inhibition at 10 µM with AR expression in LNCaP is > 50%. The pIC50 against human androgen receptor is 6.25.

Take `CC(=O)N1CCN(CCCOc2ccc(Nc3ncnc4c3CCN(c3ccc(C#N)c(Cl)c3)C4)cc2C(F)(F)F)CC1` [Example 43, 4-(4-((4-(3-(4-acetylpiperazin-1-yl)propoxy)-3-(trifluoromethyl)phenyl)amino)-5,6-dihydropyrido[3,4-d]pyrimidin-7(8H)-yl)-2-chlorobenzonitrile]: in assay [1], the “Cell proliferation rate (%)” value is 8.4%. In assay [2], the GI50 was found to be 380 nM. For the same compound, in the assay with AR expression in LNCaP, the inhibition at 10 µM is > 50%. Also, the negative logarithm of the IC50 (pIC50) on human androgen receptor was 6.52.

Regarding `COc1ccc(Nc2nc(C#N)nc3c2CCN(c2ccc(C#N)c(C(F)(F)F)c2)C3)cc1` [Example 47, 7-(4-Cyano-3-(trifluoromethyl)phenyl)-4-((4-methoxyphenyl)amino)-5,6,7,8-tetrahydropyrido[3,4-d]pyrimidine-2-carbonitrile], in assay [1], the “Cell proliferation rate (%)” value is reported as −1.7%. In assay [2], the GI50 was determined as 450 nM. For the same compound, in the assay with AR expression in LNCaP, the inhibition at 10 µM was > 50%. This compound also showed a pIC50 on human androgen receptor of 6.15.

Regarding `COc1ccc(Nc2nc(C)nc3c2CCN(c2ccc(C#N)c(C(F)(F)F)c2)C3)cc1` [Example 48, 4-(4-((4-Methoxyphenyl)amino)-2-methyl-5,6-dihydropyrido[3,4-d]pyrimidin-7(8H)-yl)-2-(trifluoromethyl)benzonitrile], the “Cell proliferation rate (%)” value in assay [1] was −1.6%. Besides, in assay [2], the GI50 turned out to be 610 nM. Moreover, in the assay on AR expression in LNCaP, the inhibition at 10 µM is > 50%. Moreover, the negative logarithm of the IC50 (pIC50) on human androgen receptor (setting [3]) was 6.00.
